Data taken from PMC12040169 (PLOS Biology, 2025).

Assay: in vitro
Settings: human, hela cells, % viability

Row | Compound | viability at 28.5 h, 10 µM [%]
1 | C=CCN(C)C(=O)[C@H]1C[C@@H](O)[C@H](O)[C@@H]2N=C(Nc3cc(C)cc(C)c3)S[C@@H]21 [CBK288948] | 94.2
2 | NNC(=O)c1c(NC(=O)c2ccccc2)sc2c1CCC2 [CBK262516] | 104
3 | COC(=O)C1=C(C(=O)OC)SC(=C2C(=S)C(C)(C)N(C(=O)c3ccc4ccccc4c3)c3cc(C)ccc32)S1 [CBK261622] | 116
4 | Cn1c(SCC(=O)Nc2c(F)cc(F)cc2Br)nnc1-c1cnccn1 [CBK267584] | 97.6
5 | O=C(c1cc(Cl)c[nH]1)N1CCN(Cc2cc(=O)n3ccsc3n2)CC1 [CBK306313] | 92.9
6 | Cc1ccc(S(=O)(=O)NNC(=O)COc2cccc3cccnc23)cc1 [CBK268788] | 90.1
7 | CS(=O)(=O)NC1CCCCC1 [CBK012234] | 89.3
8 | CCOC(=O)c1cnc2c(C)c(Cl)ccc2c1NCCN(C)C [CBK265965] | 102
9 | COc1ncccc1C(=O)NCC(CC(=O)O)c1ccc(Cl)cc1 (stereo not drawn) [CBK287264] | 92.1
10 | Cc1c(C(=O)N2CCC(c3cc4ncccc4[nH]3)CC2)cnn1C [CBK283384] | 88.1
11 | CCC(CN(C(=O)C(N)CCCCN)c1ccc2c(c1)OCO2)c1ccccc1 (stereo not drawn) [CBK001083T] | 96.4
12 | O[C@H]1[C@H](NCc2ccccn2)[C@H]2CO[C@H](O2)[C@@H]1N1CCC(Cc2ccccc2)CC1 [CBK288814] | 87.2
13 | O=C(Nc1ccc2c(c1)CS(=O)(=O)C2)c1cccs1 [CBK057563] | 113
14 | O=[N+]([O-])c1cc(C(F)(F)F)ccc1NC(CO)(CO)CO [CBK261838] | 88.4
15 | Cc1oc(NC(=O)CN2CCN(c3cccc(Cl)c3)CC2)c(C#N)c1C [CBK305906] | 82.5
16 | CCC1CC(C(F)(F)F)n2ncc(C(=O)O)c2N1 (stereo not drawn) [CBK286893] | 85.2
17 | O=c1[nH]cnc2c1cnn2[C@@H]1O[C@H](CO)[C@H](O)C1O (stereo partly drawn) [CBK201245] | 95.8
18 | CC(=O)Nc1cccc(-c2cnc3[nH]c(=O)n([C@@H](C)c4ccccc4)c3n2)c1 [CBK064159] | 98.2
19 | CN(C)S(=O)(=O)N1CC2(CCN(C(=O)[C@@H]3CN(C(=O)C(C)(C)NC(=O)OC(C)(C)C)C[C@H]3c3cc4ccccc4o3)CC2)c2ccccc21 [CBK014088] | 89
20 | Cc1nn(CC(=O)N2C(C)CCCC2C)c(=O)c2cc3occc3n12 (stereo not drawn) [CBK283555] | 80.8
21 | CCCC/C=C/c1cnc2[nH]c(=O)n(Cc3cccs3)c2n1 [CBK064373] | 83.6

Row | Compound | viability at 28.5 h, 10 µM [%]
22 | O=C(c1ccc(Br)o1)n1cc(C(F)(F)F)ccc1=O [CBK022391] | 108
23 | O=C(c1ccc2cc[nH]c2c1)N1CCN(CC2CCOC2)CC1 (stereo not drawn) [CBK305541] | 99.2
24 | CC(=O)Nc1ccc(S(=O)(=O)Nc2ccc(C(=O)O)cc2)cc1 [CBK050427] | 91.3
25 | CN(Cc1ccc(-c2ccc(S(C)(=O)=O)cc2)nc1)C1CCNCC1 [CBK163942] | 99.1
26 | Cc1sc(NC(=S)NC(=O)COc2ccc(Br)cc2Cl)c(C(N)=O)c1C [CBK266127] | 111
27 | O=C(Nc1ccccc1[N+](=O)[O-])c1ccc(Cl)c(S(=O)(=O)N2CCC(C(=O)O)CC2)c1 [CBK265180] | 101
28 | O=C(Cc1ccccc1F)N1CCC(c2cc3cccnc3[nH]2)CC1 [CBK285035] | 104
29 | CCCC(=O)c1ccc(S(=O)(=O)N2CCCN(Cc3c(-c4ccccc4)nc4sccn34)CC2)cc1 [CBK062912] | 119
30 | Fc1ccc(CSc2nnnn2-c2ccc3c(c2)OCO3)cc1 [CBK293927] | 85.2
31 | CC1CC(C)CN(C(=O)CN2C(=O)N3CCN=C3c3ccccc32)C1 (stereo not drawn) [CBK283960] | 90
32 | CCn1cncc1CN1CCN(CC2(c3ccc(C)cc3)CC2)CC1 [CBK283307] | 105
33 | COc1cccc(CCN2N=C(C)CC2=O)c1OC [CBK067766] | 100
34 | O=C1c2ccc(S(=O)(=O)c3ccc4c(c3)C(=O)N(CCO)C4=O)cc2C(=O)N1CCO [CBK023065] | 112
35 | Nc1nnc(Sc2nc3ccccc3nc2C(F)(F)F)s1 [CBK093795] | 94.6
36 | O=C(OCc1cc([N+](=O)[O-])cc2c1OCOC2)c1ccco1 [CBK297537] | 97.9
37 | c1cnc(-c2nnn[nH]2)c(-c2ccc(COc3ccc4c(c3)OCO4)cc2)n1 [CBK050812] | 107
38 | C=Cn1ncc(CN2C3CCC2CC(O)(c2ccc(F)cc2)C3)c1C (stereo not drawn) [CBK282738] | 104
39 | O=C(CSc1nc(=O)cc(O)[nH]1)c1ccccc1 [CBK026570] | 96.7
40 | CC(=O)Nc1ccc(-c2nnc(SCc3c(Cl)cccc3[N+](=O)[O-])n2C)cc1 [CBK265823] | 89.1
41 | COc1ccc(Nc2cn(C)nc2C(=O)O)cc1 [CBK269814] | 103
42 | O=C(O)c1ccc(-n2ccnc2)c(C#Cc2ccccc2)c1 [CBK284502] | 89.5

Row | Compound | viability at 28.5 h, 10 µM [%]
43 | O=C(c1cccc(F)c1)N1CCCC(c2cc3cccnc3[nH]2)C1 (stereo not drawn) [CBK284939] | 122
44 | N#Cc1c[nH]nc1NS(=O)(=O)c1ccc(F)cc1 [CBK051018] | 106
45 | O=c1scnn1Cc1nc(-c2ccsc2)no1 [CBK306438] | 83.4
46 | CCc1cc(CNC(=O)c2ccc(C)c(-n3nc(C)cc3C)c2)on1 [CBK281557] | 91.7
47 | Cc1nn2c(CN(C(=O)c3ccccc3)c3ccccc3)nnc2c2ccccc12 [CBK268084] | 87.7
48 | CCC(NC(=O)Nc1ccc(N2CCOCC2)nc1)c1cnn(CC)c1 (stereo not drawn) [CBK305172] | 90.6
49 | COc1ccccc1CCC(=O)N1CCCc2c(cnn2C)C1 [CBK284847] | 80
50 | O=C(c1cncnc1)N1CCC2(CCN(C(=O)c3ccoc3)C2)C1 (stereo not drawn) [CBK131755] | 86.2
51 | C(=C\c1ccccc1)/Cn1c(COc2ccccc2)nc2ccccc21 [CBK265535] | 91.6
52 | O=[N+]([O-])c1ccc(OCCO)cc1 [CBK000628] | 84.8
53 | CC(=O)C(C)n1c(=O)c2c(nc3oc(C(C)(C)C)cn32)n(C)c1=O (stereo not drawn) [CBK306027] | 91.1
54 | Cc1noc(C)c1COc1ccc(C(=O)N[C@@H]2CN(C(=O)NC(C)C)CCC[C@H]2O)cc1 [CBK289069] | 93.1
55 | Cc1nn(CC(=O)OC(C)C)c(=O)c2cc3sccc3n12 [CBK284022] | 93.7
56 | COc1ccc2c(C)c(CCC(=O)N(C)CC(=O)O)c(=O)oc2c1 [CBK286731] | 87
57 | CC(=O)Nc1c(C)ccc(S(=O)(=O)N2CCOCC2)c1C [CBK034327] | 98.6
58 | CCn1nc2c(C)cc3ccc(OC)cc3n2c1=O [CBK283796] | 78.3
59 | O=C1Nc2ccc(S(=O)(=O)NCCCO)c3cccc1c23 [CBK262033] | 85.9
60 | CC(C)Cc1nc(C(=O)N2CCC3(C2)NC(=O)NC3=O)cs1 (stereo not drawn) [CBK305534] | 91.8
61 | CC(C)Nc1nc2cc(Cl)c(Cl)cc2nc1Sc1cccc(O)c1 [CBK093732] | 94.8
62 | CCN1CCN(c2ncnc3sc(C)c(C)c23)CC1 [CBK288101] | 98.6
63 | Cc1nc(C2CC(O)C2)cc(N(C)CCOc2cccc(Cl)c2)n1 (stereo not drawn) [CBK307691] | 94.6
